No end group written: not given here.
Experiments:
trypsin [1] = test: equilibrium binding of fluorescently-labeled trypsin to yeast-displayed EETIwt (flow cytometry); settings: data not shown
Excerpt: We measured cell surface expression levels of the EETIwt fusion protein by flow cytometry, after staining yeast cells with a primary antibody against a C-terminal cMyc epitope tag followed by the addition of a fluorescently-labeled secondary antibody. […] (Figure 2).
Figure 2 Yeast surface display of EETI knottins and isolation of properly folded EETI loop-substituted clones. […] Density plots depict protein expression (x-axis) versus trypsin binding (y-axis) for enriched pools of loop-substituted clones after four rounds of sorting. […] (C) The progression of enrichment for properly folded EETI loop-substituted variants was monitored by flow cytometry and quantified by trypsin binding levels (at 25 nM), normalized for differences in protein expression levels. Unsorted libraries (white), libraries after two rounds of sorting (light grey), and libraries after four rounds of sorting (dark grey), as compared to EETIwt (striped). Trypsin-binding experiments were performed in triplicate and error bars denote standard deviations.
YPD media contained 20 g/L dextrose, 20 g/L peptone, and 10 g/L yeast extract. Selective SD-CAA media contained 20 g/L dextrose, 6.7 g/L yeast nitrogen base without amino acids, 5.4 g/L Na2HPO4, 8.6 g/L NaH2PO4⋅H2O, and 5 g/L Bacto casamino acids. […]

trypsin [2] = test: trypsin binding of individual yeast-displayed EETI loop 3 clones by dual-color flow cytometry; settings: triplicate; for trypsin binding level as percentage of EETIwt / trypsin binding level relative to EETIwt (fold higher): adjusted for expression (cMyc), normalized to EETIwt; for statistical significance of trypsin binding level over the highest-binding randomly-generated clone: single-factor ANOVA (p<0.02), 25 nM trypsin; for trypsin binding level relative to EETIwt (fold higher): single-factor ANOVA p<0.05 vs EETIwt
Excerpt: In addition, we also constructed twenty-five clones where EETI loop 3 was replaced by a randomly-generated nine-amino acid sequence (Table S2). Plasmids containing DNA encoding for predicted and randomly-generated clones were transformed into yeast and induced for expression on the yeast cell surface as described above. Next, we analyzed the predicted and randomly-generated EETI loop 3 clones by dual-color flow cytometry for yeast cell surface expression and binding to fluorescent trypsin, indicating retention of the knottin fold (Figure 8). […] Overall, the least-similar predicted clones also bound trypsin, but not as well as the motif-filtered clones, as expected. The small differences in trypsin binding levels of six of the least-similar predicted clones as compared to EETIwt were deemed statistically insignificant, based on single-factor ANOVA (p<0.05). […] Even the best randomly-generated clone only bound trypsin at 16% of the wild-type EETI trypsin binding level. The successful prediction of nine-amino acid sequences that can be substituted into EETI loop 3 without disrupting the knottin fold highlights the potential of this combinatorial approach for rational protein engineering applications.
Figure 8 Trypsin-binding levels of EETI loop 3 predicted and randomly-generated clones. […] Predicted clones are preceded with a ‘p’ while randomly-generated clones are preceded with an ‘r.’ Protein expression levels were quantified by immunofluorescence staining of the cMyc epitope tag. Retention of the knottin fold was determined by binding of fluorescently-labeled trypsin (25 nM). Trypsin binding levels were adjusted to account for differences in protein expression levels and then normalized to the trypsin-binding level of EETIwt. Trypsin-binding experiments were performed in triplicate and error bars denote standard deviations.
YPD media contained 20 g/L dextrose, 20 g/L peptone, and 10 g/L yeast extract. Selective SD-CAA media contained 20 g/L dextrose, 6.7 g/L yeast nitrogen base without amino acids, 5.4 g/L Na2HPO4, 8.6 g/L NaH2PO4⋅H2O, and 5 g/L Bacto casamino acids. Selective SD-CAA plates were of the same composition as the liquid media except with the addition of 182 g/L sorbitol and 15 g/L agar. SG-CAA media was identical to the SD-CAA media except dextrose was replaced with galactose. PBSA was composed of phosphate buffered saline containing 1 g/L bovine serum albumin. Lyophilized trypsin was purchased from Sigma Aldrich and fluorescently labeled with Alexa Fluor 488 tetrafluorophenyl ester (Invitrogen). Mouse anti-cMyc antibody was purchased from Covance and goat anti-mouse antibody conjugated to R-phycoerythrin was purchased from Sigma Aldrich.
Four rounds of FACS were performed on each EETI loop-substituted library to obtain an enriched pool of trypsin-binding clones. Libraries of yeast clones induced for protein expression were suspended in PBSA with mouse anti-cMyc monoclonal antibody (1∶50 dilution) and incubated for 1 h at room temperature. Yeast were pelleted by centrifugation at 4,000 rpm for 5 min, the supernatant was aspirated, and cells were washed with ice-cold PBSA. Washed yeast libraries were resuspended in PBSA with goat anti-mouse R-phycoerythrin secondary antibody (1∶25 dilution) and Alexa 488-labeled trypsin and incubated on ice in the dark for 30 min. […] Collected library clones were propagated in SD-CAA media with penicillin-streptomycin (400 µg/mL), induced for protein expression in SG-CAA media and subjected to three additional rounds of sorting. For the first round of sorting, approximately 2×10^7 yeast were sorted from each library, and at least 10 times the number of collected yeast were sorted in each subsequent round to decrease the probability of losing unique clones. Sort stringency was increased by gradually decreasing the concentration of Alexa488-labeled trypsin from 200 nM in the first round to 25 nM in the fourth round. […]

[3] = 25 nM fluorescently-labeled trypsin

## Ecballium elaterium trypsin inhibitor II [EETIwt]
Trypsin [1]; Alexa Fluor 488-labeled trypsin, read-out: approximate equilibrium binding constant
  Kd: ~25 nM
Trypsin [1]; fluorescently-labeled trypsin
  trypsin binding specificity, in words: bound specifically

## NNTNTGRGY (disulfide (positions not given here)) [p20, least-similar predicted EETI loop 3 clone, …]
Trypsin [2]; [3]
  trypsin binding level as percentage of EETIwt: approximately 30%
Trypsin [2]
  statistical significance of trypsin binding level over the highest-binding randomly-generated clone: statistically significant over the highest-binding randomly-generated clone

## NRNRKTPGY (disulfide (positions not given here)) [p3, motif-filtered predicted EETI loop 3 clone, …]
Trypsin [2]; [3]
  trypsin binding level as percentage of EETIwt: approximately 70%

## NRNRRRTGY (disulfide (positions not given here)) [p1, motif-filtered predicted EETI loop 3 clone, …]
Trypsin [2]; [3]
  trypsin binding level relative to EETIwt (fold higher): roughly 1.5 -fold

## NTTNNSPGY (disulfide (positions not given here)) [p25, least-similar predicted EETI loop 3 clone, …]
Trypsin [2]; [3]
  trypsin binding level as percentage of EETIwt: approximately 30%
Trypsin [2]
  statistical significance of trypsin binding level over the highest-binding randomly-generated clone: statistically significant over the highest-binding randomly-generated clone

## RRNRKTLGY (disulfide) [p9, motif-filtered predicted EETI loop 3 clone, …]
Trypsin [2]; [3]
  trypsin binding level relative to EETIwt (fold higher): roughly 1.5 -fold

## potato carboxypeptidase inhibitor: a knottin that does not bind trypsin; negative control (QQHADPICNKPCKTHDDCSGAWFCQACWNSARTCGPYVG; ends and bridges not checked; cysteine pairing not given here; UniProt P01075 1-39, looked up) [reference compound]
Trypsin [2]; [3]
  trypsin binding level as percentage of EETIwt: < 5%
Trypsin [2]; 25 nM fluorescently-labeled trypsin, yeast surface display
  trypsin binding, in words: does not bind trypsin

From publication PMC2725296, “Interrogating and Predicting Tolerated Sequence Diversity in Protein Folds: Application to E. elaterium Trypsin Inhibitor-II Cystine-Knot Miniprotein” (PLoS Computational Biology, 2009)
